In patent US5654411A, “Process for preparing 4-deoxyerythromycin derivatives” (Abbott Laboratories, priority 1995, dated 1997):
≈ marks a conversion by molar mass, not a printed value.

Key:
[1] = test system: Providencia stuartii CMX 640; assay: Antibacterial activity (MIC), agar dilution method; type: cell-based; conditions: unit assumed
Procedure: (§1) Compounds of the invention were next tested for antibacterial potency, such activity being regarded as an undesirable side effect if prokinetic therapy. Assays were conducted using methodology well-known in the art (the agar dilution method).

[2] = test system: Streptococcus pyogenes EES61; assay: Antibacterial activity (MIC), agar dilution method; type: cell-based; conditions: unit assumed
Procedure: as §1

[3] = test system: Micrococcus luteus ATCC 9341; assay: Antibacterial activity (MIC), agar dilution method; type: cell-based; conditions: unit assumed
Procedure: as §1

[4] = test system: Pseudomonas cepacia 2961; assay: Antibacterial activity (MIC), agar dilution method; type: cell-based; conditions: unit assumed
Procedure: as §1

[5] = test system: Streptococcus bovis A5169; assay: Antibacterial activity (MIC), agar dilution method; type: cell-based; conditions: unit assumed
Procedure: as §1

[6] = test system: Staphylococcus aureus ATCC 6538P; assay: Antibacterial activity (MIC), agar dilution method; type: cell-based; conditions: unit assumed
Procedure: as §1

[7] = test system: Pseudomonas aeruginosa DPHD-2862; assay: Antibacterial activity (MIC), agar dilution method; type: cell-based; conditions: unit assumed
Procedure: as §1

[8] = test system: Enterococcus faecium ATCC 8043; assay: Antibacterial activity (MIC), agar dilution method; type: cell-based; conditions: unit assumed
Procedure: as §1

[9] = test system: Pseudomonas aeruginosa K799/61; assay: Antibacterial activity (MIC), agar dilution method; type: cell-based; conditions: unit assumed
Procedure: as §1

[10] = test system: Staphylococcus aureus NCTC 10649; assay: Antibacterial activity (MIC), agar dilution method; type: cell-based; conditions: unit assumed
Procedure: as §1

[11] = test system: Enterobacter aerogenes ATCC 13048; assay: Antibacterial activity (MIC), agar dilution method; type: cell-based; conditions: unit assumed
Procedure: as §1

[12] = test system: Pseudomonas aeruginosa A5007; assay: Antibacterial activity (MIC), agar dilution method; type: cell-based; conditions: unit assumed
Procedure: as §1

[13] = test system: Pseudomonas aeruginosa K799/WT; assay: Antibacterial activity (MIC), agar dilution method; type: cell-based; conditions: unit assumed
Procedure: as §1

[14] = test system: Streptococcus pyogenes 2548 INDUC; assay: Antibacterial activity (MIC), agar dilution method; type: cell-based; conditions: unit assumed
Procedure: as §1

[15] = test system: Escherichia coli SS; assay: Antibacterial activity (MIC), agar dilution method; type: cell-based; conditions: unit assumed
Procedure: as §1

[16] = test system: Streptococcus agalactiae CMX 508; assay: Antibacterial activity (MIC), agar dilution method; type: cell-based; conditions: unit assumed
Procedure: as §1

[17] = test system: Micrococcus luteus ATCC 4698; assay: Antibacterial activity (MIC), agar dilution method; type: cell-based; conditions: unit assumed
Procedure: as §1

[18] = test system: Escherichia coli KNK 437; assay: Antibacterial activity (MIC), agar dilution method; type: cell-based; conditions: unit assumed
Procedure: as §1

[19] = test system: Acinetobacter calcoaceticus CMX 669; assay: Antibacterial activity (MIC), agar dilution method; type: cell-based; conditions: unit assumed
Procedure: as §1

[20] = test system: Staphylococcus aureus 1775; assay: Antibacterial activity (MIC), agar dilution method; type: cell-based; conditions: unit assumed
Procedure: as §1

[21] = test system: Staphylococcus aureus 642A; assay: Antibacterial activity (MIC), agar dilution method; type: cell-based; conditions: unit assumed
Procedure: as §1

[22] = test system: Streptococcus pyogenes 930 CONST; assay: Antibacterial activity (MIC), agar dilution method; type: cell-based; conditions: unit assumed
Procedure: as §1

[23] = test system: Escherichia coli H560; assay: Antibacterial activity (MIC), agar dilution method; type: cell-based; conditions: unit assumed
Procedure: as §1

[24] = test system: Pseudomonas aeruginosa BMH10; assay: Antibacterial activity (MIC), agar dilution method; type: cell-based; conditions: unit assumed
Procedure: as §1

[25] = test system: Staphylococcus aureus CMX 553; assay: Antibacterial activity (MIC), agar dilution method; type: cell-based; conditions: unit assumed
Procedure: as §1

[26] = test system: Escherichia coli DC-2; assay: Antibacterial activity (MIC), agar dilution method; type: cell-based; conditions: unit assumed
Procedure: as §1

[27] = test system: Pseudomonas aeruginosa DPHD-5263; assay: Antibacterial activity (MIC), agar dilution method; type: cell-based; conditions: unit assumed
Procedure: as §1

[28] = test system: Staphylococcus aureus A5177; assay: Antibacterial activity (MIC), agar dilution method; type: cell-based; conditions: unit assumed
Procedure: as §1

[29] = test system: Escherichia coli JUHL; assay: Antibacterial activity (MIC), agar dilution method; type: cell-based; conditions: unit assumed
Procedure: as §1

[30] = test system: Klebsiella pneumoniae ATCC 8045; assay: Antibacterial activity (MIC), agar dilution method; type: cell-based; conditions: unit assumed
Procedure: as §1

[31] = test system: Staphylococcus epidermidis 3519; assay: Antibacterial activity (MIC), agar dilution method; type: cell-based; conditions: unit assumed
Procedure: as §1

[32] = test system: Staphylococcus aureus A-5278; assay: Antibacterial activity (MIC), agar dilution method; type: cell-based; conditions: unit assumed
Procedure: as §1

[33] = test system: smooth muscle strips isolated from rabbit small intestine; assay: Induction of in vitro rabbit duodenal smooth muscle contraction
Procedure: The compounds of the present invention were tested in vitro for their ability to induce contraction of smooth muscle strips isolated from rabbit small intestine using the following procedure:
Rabbits were sacrificed and 15 cm of duodenum was rapidly removed and placed in ice-cold modified Ringers solution (120 mM sodium chloride, 25 mM sodium bicarbonate, 4.7 mM potassium chloride, 1.25 mM calcium chloride, 1.20 mM magnesium sulfate and 5.6 mM glucose). The longitudinal muscle layer was separated from the circular muscle by blunt dissection and cut into strips of 10×20 mm. Double-folded strips were vertically suspended between two hooks in 10 mL tissue baths with a mechanical preload of 1 g. The upper hook was connected to an […] force transducer, and its displacement was recorded on a Grass polygraph. The tissue baths contained modified Ringers solution at 37° C. and were continuously gassed with 95% oxygen/5% carbon dioxide in order to maintain the pH at 7.5.
After a stabilization period of at least 60 minutes, a contractility dose-response series was performed by adding increasing final concentrations of methacholine (10^-7 M, 10^-6 M and 10^-5 M) in volumes of 100 μL. The bath solutions were replaced at least three times between doses.
After the methacholine dose-response series was completed, a test compound dose response curve was initiated by the same procedure used for the methacholine dose-response series, with at least five concentrations of test compound within the range of 10^-10 M to 10^-4 M. The tissues were washed repeatedly between doses, and the studies were completed by recording the contractile response to 10^-5 M methacholine to ascertain integrity of the muscle preparation. Contractile responses were expressed as percent of maximal contraction. The concentration of test compound which produces half of the maximal contraction (ED50 value) and the negative logarithm of the ED50 value (PED50) were estimated from the dose-response curves.

SMILES	MIC [1] [µg/mL]	MIC [2] [µg/mL]	MIC [3] [µg/mL]	MIC [4] [µg/mL]	MIC [5] [µg/mL]	MIC [6] [µg/mL]	MIC [7] [µg/mL]	MIC [8] [µg/mL]	MIC [9] [µg/mL]	MIC [10] [µg/mL]	MIC [11] [µg/mL]	MIC [12] [µg/mL]	MIC [13] [µg/mL]	MIC [14] [µg/mL]	MIC [15] [µg/mL]	MIC [16] [µg/mL]	MIC [18] [µg/mL]	MIC [19] [µg/mL]	MIC [20] [µg/mL]	MIC [21] [µg/mL]	other results
CC[C@H]1OC(=O)[C@H](C)[C@@H](O[C@H]2C[C@@](C)(OC)[C@@H](O)[C@H](C)O2)[C@H](C)[C@@H](O[C@@H]2O[C@H](C)C[C@H](N(C)C)[C@H]2O)[C@](C)(O)C[C@@H](C)C(=O)[C@H](C)[C@@H](O)[C@]1(C)O [Erythromycin]	> 100	0.05 (≈ 0.0681 µM)	0.02 (≈ 0.0273 µM)	> 100	0.02 (≈ 0.0273 µM)	0.1 (≈ 0.136 µM)	> 100	0.05 (≈ 0.0681 µM)	3.1 (≈ 4.22 µM)	0.2 (≈ 0.273 µM)	100 (≈ 136 µM)	> 100	100 (≈ 136 µM)	6.2 (≈ 8.45 µM)	0.2 (≈ 0.273 µM)	0.05 (≈ 0.0681 µM)	50 (≈ 68.1 µM)	6.2 (≈ 8.45 µM)	> 100	0.2 (≈ 0.273 µM)	MIC [17]: 0.1 µg/mL (≈ 0.136 µM); MIC [22]: > 100 µg/mL; MIC [23]: 25 µg/mL (≈ 34.1 µM); MIC [24]: 50 µg/mL (≈ 68.1 µM); MIC [25]: 0.2 µg/mL (≈ 0.273 µM); MIC [26]: 50 µg/mL (≈ 68.1 µM); MIC [27]: 100 µg/mL (≈ 136 µM); MIC [28]: 1.56 µg/mL (≈ 2.13 µM); MIC [29]: 50 µg/mL (≈ 68.1 µM); MIC [30]: 50 µg/mL (≈ 68.1 µM); MIC [31]: 0.2 µg/mL (≈ 0.273 µM); MIC [32]: > 100 µg/mL
CC[C@H]1OC(=O)[C@H](C)[C@@H](O[C@H]2C[C@@](C)(OC)C[C@H](C)O2)[C@H](C)[C@@H](O[C@@H]2O[C@H](C)C[C@H](N(C)CC)[C@H]2O)[C@@]2(C)CC(C)=C(O2)[C@H](C)[C@@H](O)[C@H]1C [Example 7, 8,9-anhydro-4"-deoxy-3'-N-desmethyl-3'-N-ethylerythromycin B-6,9-hemiketal]	> 100	50 (≈ 71.6 µM)	12.5 (≈ 17.9 µM)	> 100	50 (≈ 71.6 µM)	100 (≈ 143 µM)	> 100	50 (≈ 71.6 µM)	> 100	100 (≈ 143 µM)	> 100	> 100	> 100	50 (≈ 71.6 µM)	100 (≈ 143 µM)	50 (≈ 71.6 µM)	> 100	> 100	> 100	> 100	MIC [22]: > 100 µg/mL; MIC [23]: > 100 µg/mL; MIC [24]: > 100 µg/mL; MIC [25]: > 100 µg/mL; MIC [26]: > 100 µg/mL; MIC [27]: > 100 µg/mL; MIC [28]: 100 µg/mL (≈ 143 µM); MIC [29]: > 100 µg/mL; MIC [30]: > 100 µg/mL; MIC [31]: 100 µg/mL (≈ 143 µM); MIC [32]: > 100 µg/mL; Endpoint (pED50) could not be obtained, potency in words ([33]; footnote a of Table 2): extremely high potency; Relative Potency ([33]; relative to erythromycin A = 1.0): > 8000
